# Test results: ChEMBL document CHEMBL3784951, “Discovery of (3-(4-(2-Oxa-6-azaspiro[3.3]heptan-6-ylmethyl)phenoxy)azetidin-1-yl)(5-(4-methoxyphenyl)-1,3,4-oxadiazol-2-yl)methanone (AZD1979), a Melanin Concentrating Hormone Receptor 1 (MCHr1) Antagonist with Favorable Physicochemical Properties” (J Med Chem, 2016)
# Key:
# [1] = physchem; settings: buffer, pH 7.4
# [2] = in vitro; settings: human, microsomes
# [3] = physchem
# [4] = in vitro; settings: human, Caco-2
# [5] = species: Mus musculus; experiment: animal or person; settings: C57BL/6J
# [6] = species: Mus musculus; experiment: animal or person; settings: C57BL/6J; remark: listed apart in the source
# [7] = physchem; settings: pH 7.4
# [8] = in vitro; settings: rat, microsomes
# [9] = in vitro; settings: human, Caco-2; remark: listed apart in the source
SMILES,logD [1],microsomal CLint [2],pKa [3],Papp A→B [4],IC50 [5],IC50 [6],solubility [7],microsomal CLint [8],efflux ratio [9]
O=C(c1nnc(-c2ccccc2)o1)N1CC(Oc2ccc(CN3CC4(CCOC4)C3)cc2)C1,2.1,2 µL/min/mg,8.6,–,–,–,–,–,–
O=C(c1nnc(-c2ccccc2)o1)N1CC(Oc2ccc(CN3CC4(CCCO4)C3)cc2)C1,2.6,6 µL/min/mg,8.4,–,–,–,–,–,–
O=C(c1nnc(-c2ccccc2Cl)o1)N1CCC(Oc2ccc(CN3CCCC3)cc2)CC1,2.7,13 µL/min/mg,–,59 ×10⁻⁶ cm/s,–,–,–,–,–
O=C(c1nnc(-c2ccccc2)o1)N1CC(Oc2ccc(CN3CC4(COC4)C3)cc2)C1,1.8,–,–,79 ×10⁻⁶ cm/s,15 nM,–,–,–,–
COc1ccc(-c2nnc(C(=O)N3CCC(Oc4ccc(CN5CCC(O)C5)cc4)CC3)o2)cc1 (stereo not given),2,–,8.9,36 ×10⁻⁶ cm/s,–,293 nM,–,–,–
COc1ccc(-c2nnc(C(=O)N3CC(Oc4ccc(CN5CC6(CCCO6)C5)cc4)C3)o2)cc1,2.7,29 µL/min/mg,8.4,41 ×10⁻⁶ cm/s,2 nM,–,–,–,–
O=C(c1nnc(-c2ccc(Cl)cc2)o1)N1CCC(Oc2ccc(CN3CCCC3)cc2)CC1,–,13 µL/min/mg,–,43 ×10⁻⁶ cm/s,–,–,70 µM,17 µL/min/mg,–
COc1ccc(-c2nnc(C(=O)N3CCC(Oc4ccc(CN5CCCC5)nc4)CC3)o2)cc1,1.8,–,9.1,31 ×10⁻⁶ cm/s,–,–,–,–,–
O=C(c1nnc(-c2ccc(OC(F)F)cc2)o1)N1CCC(Oc2ccc(CN3CCCC3)cc2)CC1,2.9,15 µL/min/mg,–,50 ×10⁻⁶ cm/s,–,–,–,–,–
CN(Cc1ccc(OC2CN(C(=O)c3nnc(-c4ccccc4)o3)C2)cc1)CC1(C)COC1,4,117 µL/min/mg,8.5,–,–,–,–,–,–
O=C(c1nnc(-c2ccc(F)cc2)o1)N1CCC(Oc2ccc(CN3CCCC3)cc2)CC1,2.4,–,–,52 ×10⁻⁶ cm/s,–,–,> 100 µM,–,–
COc1ccc(-c2nnc(C(=O)N3CC(Oc4ccc(CN(C)C)c(C)c4)C3)o2)cc1,2,22 µL/min/mg,9.3,54 ×10⁻⁶ cm/s,1 nM,–,–,149 µL/min/mg,0.3
COc1ccc(-c2nnc(C(=O)N3CCC(Oc4ccc(CN5CCN(C)CC5)cc4)CC3)o2)cc1,2.5,–,8.5,56 ×10⁻⁶ cm/s,–,–,–,–,–
COc1ccc(-c2nnc(C(=O)N3CCC(Oc4ccc(CN5CCCC5)cn4)CC3)o2)cc1,2.3,24 µL/min/mg,9.2,49 ×10⁻⁶ cm/s,–,–,–,28 µL/min/mg,–
COc1ccc(-c2nnc(C(=O)N3CC(Oc4ccc(CN5CCCC56COC6)cc4)C3)o2)cc1,3.9,74 µL/min/mg,–,–,–,–,–,–,–
COc1ccc(-c2nnc(C(=O)N3CCC(Oc4ccc(CN5CC(O)C(C)(C)C5)cc4)CC3)o2)cc1 (stereo not given),2.6,19 µL/min/mg,8.9,34 ×10⁻⁶ cm/s,–,91 nM,–,–,–

SMILES,logD [1],microsomal CLint [2],pKa [3],Papp A→B [4],IC50 [5],IC50 [6],solubility [7],microsomal CLint [8],efflux ratio [9]
COc1ccc(-c2nnc(C(=O)N3CC(Oc4ccc(CN(C)C)c(F)c4)C3)o2)cc1,2.2,42 µL/min/mg,8.6,62 ×10⁻⁶ cm/s,9 nM,–,–,218 µL/min/mg,0.32
Cc1oc(-c2ccccc2)nc1C(=O)N1CCC(Oc2ccc(CN3CCCC3)cc2)CC1,3,–,–,–,–,–,754 µM,–,–
O=C(c1cc(-c2ccccc2)on1)N1CCC(Oc2ccc(CN3CCCC3)cc2)CC1,3,–,–,–,–,–,198 µM,–,–
CC1(O)CCN(Cc2ccc(OC3CN(C(=O)c4nnc(-c5ccccc5)o4)C3)cc2)C1 (stereo not given),1.45,–,9,34 ×10⁻⁶ cm/s,146 nM,–,–,–,0.26
COc1ccc(-c2nnc(C(=O)N3CC(Oc4ccc(CN5CCC(C)(O)C5)cc4)C3)o2)cc1 (stereo not given),1.6,2.8 µL/min/mg,9,42 ×10⁻⁶ cm/s,35 nM,–,–,–,–
COc1ccc(-c2nnc(C(=O)N3CC(Oc4ccc(CN5CCOCC5)c(OC)c4)C3)o2)cc1,3.3,332 µL/min/mg,7.5,51 ×10⁻⁶ cm/s,–,–,–,–,–
COc1ccc(-c2nnc(C(=O)N3CC(Oc4ccc(CN(C)CC5(C)COC5)cc4)C3)o2)cc1,4.1,110 µL/min/mg,8,–,–,–,–,–,–
COc1ccc(-c2nnc(C(=O)N3CC(Oc4ccc(CN5CCN(C)CC5)c(F)c4)C3)o2)cc1,2.2,36 µL/min/mg,8.4,46 ×10⁻⁶ cm/s,–,–,–,–,0.35
COc1ccc(-c2nnc(C(=O)N3CC(Oc4ccc(CN(C)C)cc4)C3)o2)cc1,1.55,17 µL/min/mg,8.9,67 ×10⁻⁶ cm/s,14 nM,–,–,53 µL/min/mg,–
O=C(c1nnc(-c2ccccc2)o1)N1CCC(Oc2ccc(CN3CCCC3)cc2)CC1,2.2,–,–,55 ×10⁻⁶ cm/s,–,–,> 100 µM,–,–
COc1ccc(-c2nnc(C(=O)N3CC(Oc4ccc(CN(C)C)cn4)C3)o2)cc1,1.8,13 µL/min/mg,8.5,–,–,–,–,145 µL/min/mg,–
COc1ccc(-c2nnc(C(=O)N3CC(Oc4ccc(CN5CCCOCC5)cc4)C3)o2)cc1,2.4,37 µL/min/mg,8.1,51 ×10⁻⁶ cm/s,–,–,–,–,–
COc1ccc(-c2nnc(C(=O)N3CC(Oc4ccc(CN5CC6(CCOC6)C5)cc4)C3)o2)cc1,2.2,14 µL/min/mg,8.6,60 ×10⁻⁶ cm/s,2 nM,–,–,–,–
Cn1nc(C(=O)N2CCC(Oc3ccc(CN4CCCC4)cc3)CC2)cc1-c1ccccc1,2.2,7 µL/min/mg,–,–,–,–,930 µM,–,–
CN1CCN(Cc2ccc(OC3CN(C(=O)c4nnc(-c5ccccc5)o4)C3)cc2F)CC1,2.1,20 µL/min/mg,8.4,46 ×10⁻⁶ cm/s,–,–,–,–,0.35
COc1ccc(-c2nnc(C(=O)N3CC(Oc4ccc(CN5CC(OC)C5)cc4)C3)o2)cc1,2.3,51 µL/min/mg,8.5,–,–,–,–,–,–
